In patent publication US20250171420A1 (Monte Rosa Therapeutics, Inc., priority 2022, published 2025):
Read-outs that look alike come from different tables or passages of the source.

Columns and labels:
CW2 cell line = assay: Growth inhibition, CyQUANT Direct Cell Proliferation Assay, CW2; assay type: cell-based; details: Homo sapiens, CW-2; CW2, 120 to 168 hours; read-out: CW2 GI50
Method in brief: (§1)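 Cells seeded 300 to 1,800 per well, day-0 CyQUANT Direct read after overnight attachment; 9-point 3-fold dilutions from 30 μM top concentration, 120 to 168 h exposure, 0.3% DMSO control. Fluorescence Ex/Em 480/520 nm; growth inhibition normalised to day-0 and untreated day-N signals, GI50 at 50% of untreated control.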

[1] = Oral pharmacokinetics in male BALB/c mice; assay type: in vivo; details: mouse, plasma, mean ± SD
Description: Male BALB/c mice were administered a discrete, oral (PO) dose of Compound 288, Compound 335, Compound 102, or Compound 303 at 10 mg/kg; all mice were fasted except for mice that were dosed with Compound 288. Male BALB/c mice were fasted overnight and administered a cassette dose, PO dose of Compound 303 and other compounds at 5 mg/kg per compound.
Blood samples were collected serially from three animals/time-point following PO administration of the test compounds to the mice and placed in tubes containing K2EDTA. The blood samples were centrifuged, and the aliquots of the resulting plasma stored frozen at −60 to −90° C.
The plasma samples were analyzed by LC-MS/MS to determine concentrations of the test compounds. The in-life portion of the study and the bioanalysis of plasma samples was conducted at Wuxi (China).
The pharmacokinetic parameters for the tested compounds were calculated by non-compartmental analysis using Phoenix WinNonlin software.

LS180 cell line = assay: Growth inhibition, CyQUANT Direct Cell Proliferation Assay, LS180; assay type: cell-based; details: Homo sapiens; LS180, 120 to 168 hours; read-out: LS180 GI50
Method in brief: as §1

LS174T cell line = assay: Growth inhibition, CyQUANT Direct Cell Proliferation Assay, LS174T; assay type: cell-based; details: Homo sapiens, 120 to 168 hours, read-out: LS174T GI50
Method in brief: as §1

SKCO1 cell line = assay: Growth inhibition, CyQUANT Direct Cell Proliferation Assay, SKCO1; assay type: cell-based; details: Homo sapiens, SK-CO-1; SKCO1, 120 to 168 hours; read-out: SKCO1 GI50
Method in brief: as §1

CRBN/DDB1 = CRBN/DDB1 (Homo sapiens, UniProt Q96SW2); assay: HTRF binding assay (displacement of Cy5-thalidomide probe from CRBN/DDB1)
Method in brief: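 Compounds in a 10-point threefold dilution series were incubated 30 min at ambient temperature with 2.5 nM CRBN/DDB1, 100 nM Cy5-thalidomide probe and terbium anti-His donor (HEPES/NaCl/TCEP/EDTA/Tween20 buffer). IC50 came from 4-parameter fits of the 665/620 nm HTRF ratio; Ki used Cheng-Prusoff on geometric-mean IC50.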

CK1α [2] = target: T1, CK1α (Homo sapiens, UniProt P48729); assay: CK1α NanoBit Assay (HiBiT-tagged CSNK1A1, HEK293 clonal lines); assay type: cell-based; details: HEK293 HiBiT-CSNK1A1/LgBiT cells, 24 h incubation
T1 construct: HEK293 clonal lines with CRISPR KI HiBiT tag on CSNK1A1
Method in brief: (§2)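 HEK293 clones carrying a CRISPR knock-in HiBiT tag on CSNK1A1 and stably expressing LgBiT are treated with compound for 24 hours at 37° C, 5% CO2, then read by luminescence. Response is normalized as 100*(S−N)/(P−N) against plate negative and positive controls, and DC50 values are derived.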

GP2D cell line = assay: Growth inhibition, CyQUANT Direct Cell Proliferation Assay, GP2D; assay type: cell-based; details: GP2D, 120 to 168 hours; read-out: GP2D GI50
Method in brief: as §1

CK1α [3] = target: T2, CK1α (Homo sapiens, UniProt P48729+Q96SW2); assay: CK1α NanoBit Assay (HiBiT-tagged CSNK1A1, HEK293 clonal lines); assay type: cell-based; details: read-out: CK1α DC50 (μM) 24 h; HEK293 HiBiT-CSNK1A1/LgBiT cells, 24 h incubation
T2 construct: HEK293 clonal lines with CRISPR KI HiBiT tag on CSNK1A1
Method in brief: as §2

[4] = CRBN/DDB1 2.5 nM, Cy5-Thalidomide 100 nM, 30 min, geometric mean, read-out: HTRF_Thali_Disp_DR_geo_IC50

T1 sequence (P48729 whole entry): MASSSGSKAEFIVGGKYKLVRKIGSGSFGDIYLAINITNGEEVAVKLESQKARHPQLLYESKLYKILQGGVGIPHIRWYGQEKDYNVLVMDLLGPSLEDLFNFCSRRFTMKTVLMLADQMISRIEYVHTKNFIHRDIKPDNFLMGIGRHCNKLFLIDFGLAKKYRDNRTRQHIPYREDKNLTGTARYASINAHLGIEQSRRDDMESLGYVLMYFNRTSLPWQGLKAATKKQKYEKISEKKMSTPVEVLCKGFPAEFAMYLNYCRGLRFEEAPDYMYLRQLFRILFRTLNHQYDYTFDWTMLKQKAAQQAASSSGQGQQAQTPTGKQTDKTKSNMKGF
T1 sequence (Q96SW2 whole entry, further chain): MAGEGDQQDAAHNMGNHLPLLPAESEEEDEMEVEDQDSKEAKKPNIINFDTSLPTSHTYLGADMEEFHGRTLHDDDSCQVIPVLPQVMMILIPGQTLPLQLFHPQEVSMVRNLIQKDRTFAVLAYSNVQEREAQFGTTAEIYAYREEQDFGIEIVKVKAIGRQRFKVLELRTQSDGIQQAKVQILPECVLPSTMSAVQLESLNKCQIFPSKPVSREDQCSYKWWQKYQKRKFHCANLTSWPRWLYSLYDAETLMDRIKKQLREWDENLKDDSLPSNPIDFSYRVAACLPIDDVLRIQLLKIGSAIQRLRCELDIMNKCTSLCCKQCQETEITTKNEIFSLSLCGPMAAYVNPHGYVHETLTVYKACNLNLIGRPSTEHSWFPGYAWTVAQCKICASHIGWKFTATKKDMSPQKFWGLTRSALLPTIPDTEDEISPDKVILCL
T1 sequence (Q16531 2-1140 partner limits assumed): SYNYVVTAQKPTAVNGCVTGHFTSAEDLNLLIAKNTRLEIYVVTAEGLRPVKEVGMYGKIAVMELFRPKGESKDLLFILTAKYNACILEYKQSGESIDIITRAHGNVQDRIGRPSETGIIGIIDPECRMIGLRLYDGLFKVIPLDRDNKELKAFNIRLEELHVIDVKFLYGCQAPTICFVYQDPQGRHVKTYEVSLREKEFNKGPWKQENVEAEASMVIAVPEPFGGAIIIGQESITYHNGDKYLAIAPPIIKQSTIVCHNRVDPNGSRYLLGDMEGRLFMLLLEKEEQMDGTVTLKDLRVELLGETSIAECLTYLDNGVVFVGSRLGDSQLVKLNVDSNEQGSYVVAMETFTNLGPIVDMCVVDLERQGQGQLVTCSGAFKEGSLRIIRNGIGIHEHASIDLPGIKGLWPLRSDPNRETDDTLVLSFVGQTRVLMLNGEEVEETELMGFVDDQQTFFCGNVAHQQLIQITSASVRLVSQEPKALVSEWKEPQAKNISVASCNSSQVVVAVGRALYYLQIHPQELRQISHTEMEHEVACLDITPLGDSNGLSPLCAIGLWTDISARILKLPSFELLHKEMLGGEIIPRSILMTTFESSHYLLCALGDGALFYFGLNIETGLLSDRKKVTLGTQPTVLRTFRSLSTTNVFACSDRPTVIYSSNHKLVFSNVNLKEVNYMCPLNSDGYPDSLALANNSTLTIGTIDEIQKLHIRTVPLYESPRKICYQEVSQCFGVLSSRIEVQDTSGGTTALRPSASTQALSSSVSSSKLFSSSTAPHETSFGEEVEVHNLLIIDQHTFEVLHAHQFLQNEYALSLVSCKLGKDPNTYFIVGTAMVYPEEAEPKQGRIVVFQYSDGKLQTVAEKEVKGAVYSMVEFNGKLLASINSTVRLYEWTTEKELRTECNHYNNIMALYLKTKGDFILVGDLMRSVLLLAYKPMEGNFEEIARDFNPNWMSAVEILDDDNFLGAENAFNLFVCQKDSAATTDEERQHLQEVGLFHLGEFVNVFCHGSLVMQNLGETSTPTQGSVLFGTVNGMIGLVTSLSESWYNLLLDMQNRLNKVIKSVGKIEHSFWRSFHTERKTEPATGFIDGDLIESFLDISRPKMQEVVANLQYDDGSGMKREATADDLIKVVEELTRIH
Sequence of CRBN/DDB1 (Q96SW2 whole entry, species assumed): as the sequence (Q96SW2 whole entry, further chain) above
Sequence of CRBN/DDB1 (Q16531 whole entry partner, species assumed): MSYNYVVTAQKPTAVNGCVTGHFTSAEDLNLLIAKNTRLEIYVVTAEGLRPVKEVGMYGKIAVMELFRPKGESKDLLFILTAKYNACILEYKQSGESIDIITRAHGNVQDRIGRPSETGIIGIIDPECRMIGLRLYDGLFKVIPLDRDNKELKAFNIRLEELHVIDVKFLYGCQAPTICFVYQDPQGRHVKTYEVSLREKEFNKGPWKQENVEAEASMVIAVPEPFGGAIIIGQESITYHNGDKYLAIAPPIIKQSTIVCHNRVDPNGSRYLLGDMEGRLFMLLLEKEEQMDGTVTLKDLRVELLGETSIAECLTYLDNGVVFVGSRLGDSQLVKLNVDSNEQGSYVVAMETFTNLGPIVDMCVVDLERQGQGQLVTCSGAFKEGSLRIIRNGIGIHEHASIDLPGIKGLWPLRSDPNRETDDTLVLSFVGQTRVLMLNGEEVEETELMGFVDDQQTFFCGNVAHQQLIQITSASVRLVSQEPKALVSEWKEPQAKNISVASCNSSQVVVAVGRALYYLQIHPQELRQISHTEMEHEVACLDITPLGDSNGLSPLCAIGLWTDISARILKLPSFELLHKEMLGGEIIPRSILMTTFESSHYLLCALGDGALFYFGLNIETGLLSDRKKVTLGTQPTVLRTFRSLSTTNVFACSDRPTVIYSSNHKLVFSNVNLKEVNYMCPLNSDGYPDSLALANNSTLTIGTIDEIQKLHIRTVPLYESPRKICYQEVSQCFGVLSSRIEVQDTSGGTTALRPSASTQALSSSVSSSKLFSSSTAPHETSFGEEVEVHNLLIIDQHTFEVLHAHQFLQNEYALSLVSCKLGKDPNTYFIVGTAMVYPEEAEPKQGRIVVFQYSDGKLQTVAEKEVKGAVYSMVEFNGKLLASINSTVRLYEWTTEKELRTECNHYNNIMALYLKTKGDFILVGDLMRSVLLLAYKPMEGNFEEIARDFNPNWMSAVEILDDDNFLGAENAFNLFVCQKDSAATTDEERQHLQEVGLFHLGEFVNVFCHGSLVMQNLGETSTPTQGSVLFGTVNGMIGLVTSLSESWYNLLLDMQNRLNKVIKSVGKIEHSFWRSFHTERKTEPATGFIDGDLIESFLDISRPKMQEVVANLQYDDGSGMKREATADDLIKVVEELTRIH
T2 sequence (P48729 whole entry): as the sequence (P48729 whole entry) above
T2 sequence (Q96SW2 whole entry): as the sequence (Q96SW2 whole entry, further chain) above
T2 sequence (Q16531 2-1140 partner limits assumed): as the sequence (Q16531 2-1140 partner limits assumed) above

AUC ([1]; PO 10 mg/kg)	AUC(0-t) ([1]; PO 10 mg/kg)	Cmax ([1]; PO 10 mg/kg)	Tmax ([1]; PO 10 mg/kg)	half-life ([1]; PO 10 mg/kg)	GI50 (SKCO1 cell line)	IC50 (CRBN/DDB1; [4])	DC50 (CK1α [2])	AUC ([1]; PO 5 mg/kg (cassette dose))	AUC(0-t) ([1]; PO 5 mg/kg (cassette dose))	Cmax ([1]; PO 5 mg/kg (cassette dose))	Tmax ([1]; PO 5 mg/kg (cassette dose))	half-life ([1]; PO 5 mg/kg (cassette dose))	Structure (SMILES)	GI50 (CW2 cell line)	GI50 (LS180 cell line)	GI50 (LS174T cell line)	GI50 (GP2D cell line)	IC50 (CRBN/DDB1)	DC50 (CK1α [3])
29700 ± 2450 ng·h/mL	29600 ± 2460 ng·h/mL	6870 ± 761 ng/mL	49.8 ± 17.4 min	163 ± 29.4 min	< 0.1 µM	0.1 to 1 µM	< 0.1 µM						COC[C@@H]1Cc2ccccc2N1C(=O)Nc1ccc2c(c1)CN(C1CCC(=O)NC1=O)C2=O (stereo partly drawn) [Compound 288, (2S)—N-(2-(2,6-dioxopiperidin-3-yl)-1-oxoisoindolin-5-yl)-2-(methoxymethyl)indoline-1-carboxamide]	< 0.1 µM	0.1 to 1 µM	0.1 to 1 µM	0.1 to 1 µM		
													CC(C)(C)C1CN(C(=O)Nc2ccc3c(c2)CN(C2CCC(=O)NC2=O)C3=O)c2ccccc21 (stereo not shown) [Compound 187, 3-(tert-butyl)-N-(2-(2,6-dioxopiperidin-3-yl)-1-oxoisoindolin-5-yl)indoline-1-carboxamide]					0.1 to 1 µM	< 0.1 µM
13400 ± 696 ng·h/mL	13300 ± 694 ng·h/mL	10600 ± 697 ng/mL	15 min	64.8 ± 2.4 min		0.1 to 1 µM	< 0.1 µM						COCC1c2ccc(C3CC3)cc2CN1C(=O)Nc1ccc2c(c1)CN(C1CCC(=O)NC1=O)C2=O (stereo not shown) [Compound 335, 5-cyclopropyl-N-(2-(2,6-dioxopiperidin-3-yl)-1-oxoisoindolin-5-yl)-1-(methoxymethyl)isoindoline-2-carboxamide]						
						0.1 to 1 µM	< 0.1 µM	12700 ± 1760 ng·h/mL	12300 ± 1710 ng·h/mL	7790 ± 1060 ng/mL	30 min	90.6 ± 13.2 min	COC[C@H]1Cc2c(F)cccc2N1C(=O)Nc1ccc2c(c1)CN(C1CCC(=O)NC1=O)C2=O (stereo partly drawn) [Compound 303, (2R)—N-(2-(2,6-dioxopiperidin-3-yl)-1-oxoisoindolin-5-yl)-4-fluoro-2-(methoxymethyl)indoline-1-carboxamide]						
